Laboratory results as given in patent US11976083B2, “Inhibitors of peptidylarginine deiminases” (Gilead Sciences, Inc., priority 2020, dated 2024).

Target: T1, human PAD4 (Homo sapiens, UniProt Q9UM07)
T1 construct: human PAD4 (NM_012387), A2-P663, was PCR amplified; His-SUMO (N, cleaved yes); made in house; host or cells: E. coli BL21(DE3)
Assay: In vitro PAD4 BAEE biochemical assay
Conditions: BAEE substrate 3 mM, 5 nM PAD4, 2 mM calcium chloride; geometric mean of multiple experiments
How it was run: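 Ammonia produced by BAEE deimination (3 mM substrate, 2 h, 25 °C) was read as fluorescent isoindole after o-phthalaldehyde/DTT derivatization, ex 405 nm/em 535 nm. Human PAD4 at 5 nM final, 2 mM calcium, pH 7.6 MOPS; compound preincubated 30 min. IC50s, normalized to BB-Cl-Amidine and DMSO controls, were geometric-mean averaged.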

T1 sequence (Q9UM07 2-663): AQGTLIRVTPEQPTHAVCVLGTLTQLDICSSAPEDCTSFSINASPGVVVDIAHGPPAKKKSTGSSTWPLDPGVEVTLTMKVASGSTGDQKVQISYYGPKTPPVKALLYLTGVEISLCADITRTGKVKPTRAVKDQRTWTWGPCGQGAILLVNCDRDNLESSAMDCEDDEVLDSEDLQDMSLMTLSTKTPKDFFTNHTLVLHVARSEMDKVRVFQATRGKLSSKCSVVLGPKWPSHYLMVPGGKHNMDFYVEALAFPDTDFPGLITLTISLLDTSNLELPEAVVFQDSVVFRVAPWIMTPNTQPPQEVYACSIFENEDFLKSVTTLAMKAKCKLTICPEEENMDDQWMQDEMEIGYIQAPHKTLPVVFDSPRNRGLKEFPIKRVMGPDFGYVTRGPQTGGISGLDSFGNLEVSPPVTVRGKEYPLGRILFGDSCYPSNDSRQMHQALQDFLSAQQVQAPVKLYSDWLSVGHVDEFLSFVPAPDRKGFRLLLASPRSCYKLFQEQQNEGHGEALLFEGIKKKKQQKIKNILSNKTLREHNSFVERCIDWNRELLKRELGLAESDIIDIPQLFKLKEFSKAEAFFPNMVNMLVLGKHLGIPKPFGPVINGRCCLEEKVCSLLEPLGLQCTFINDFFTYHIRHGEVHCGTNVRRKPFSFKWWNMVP

IC50 [nM]	Compound
20	C[C@H]1NC(=O)C(C)(C)CCCCCn2c(-c3nc4cc(C(=O)N5C[C@H](N)[C@@H]6CC[C@H]5C6)cc(F)c4n3C3CC3)cc3ccc1nc32 [Example 684, (10~{R})-16-[5-[(1~{S}, 4~{R},5~{R})-4-amino-2-azabicyclo [3.2.1]octane-2-carbonyl]-1-cyclopropyl-7-fluoro-benzimidazol-2-yl]-7,7,10-trimethyl-1,9,18-triazatricyclo[9.5.2.0^ {14,17}]octadeca-11(18), 12,14(17),15-tetraen-8-one]
38	COc1cc(C(=O)N2C[C@H](N)[C@@H]3CC[C@H]2C3)cc2nc(-c3cc4ccc5nc4n3CC(F)(F)CCCc3cncc(F)c3C(=O)N[C@@H]5C)n(C)c12 [Example 446, (2~{R})-17-[5-[(1~{S},4~{R},5~{R})-4-amino-2-azabicyclo[3.2.1]octane-2-carbonyl]-7-methoxy-1-methyl-benzimidazol-2-yl]-6,14,14-trifluoro-2-methyl-3,8,16,22-tetrazatetracyclo[14.5.2.0^{5,10}.0^{19,23}] tricosa-1(22),5(10),6,8,17,19(23),20-heptaen-4-one]
231	C[C@H]1NC(=O)[C@](F)(c2cccc(Cl)n2)CCCCCCn2c(-c3nc4cc(C(=O)N5C[C@H](N)[C@@H]6CC[C@H]5C6)cc(F)c4n3C3CC3)cc3ccc1nc32 [Example 481, (8~{R},11~{R})-17-[5-[(1~{S},4~{R},5~{R})-4-amino-2-azabicyclo[3.2.1]octane-2-carbonyl]-1-cyclopropyl-7-fluoro-benzimidazol-2-yl]-8-(6-chloro-2-pyridyl)-8-fluoro-11-methyl-1,10,19-triazatricyclo[10.5.2.0^{15,18}]nonadeca-12(19),13,15(18),16-tetraen-9-one]
76	COc1cc(C(=O)N2CC[C@H]3CCN[C@H]3C2)cc2nc(-c3cc4ccc5nc4n3CCCCCCC(C)(C)C(=O)N[C@@H]5C)n(C)c12 [Example 79, (11~{R})-17-[5-[(3~{a}~{R},7~{a}~{R})-1,2,3,3~{a},4,5,7,7~{a}-octahydropyrrolo[2,3-c]pyridine-6-carbonyl]-7-methoxy-1-methyl-benzimidazol-2-yl]-8,8,11-trimethyl-1,10,19-triazatricyclo[10.5.2.0^{15,18}]nonadeca-12(19),13,15(18),16-tetraen-9-one]
32	CO[C@@H]1CCN(C(=O)c2cc(F)c3c(c2)nc(-c2cc4ccc5nc4n2CCCCCc2ccnc(C(F)(F)F)c2C(=O)N[C@@H]5C)n3C2CC2)C[C@@H]1N [Example 836, (2~{R})-17-[5-[(3~{S}, 4~{R})-3-amino-4-methoxy-piperidine-1-carbonyl]-1-cyclopropyl-7-fluoro-benzimidazol-2-yl]-2-methyl-6-(trifluoromethyl)-3,7,16,22-tetrazatetracyclo[14.5.2.0^ {5,10}.0^{19,23}] tricosa-1(22),5(10), 6,8,17,19(23),20-heptaen-4-one]
39	COc1cc(C(=O)N2CC[C@@H](OC)[C@@H](N)C2)cc2nc(-c3cc4ccc5nc4n3CCCCCC[C@](C)(c3ccccn3)C(=O)N[C@@H]5C)n(C)c12 [Example 861, (8~{R},11~{R})-17-[5-[(3~ {S},4~{R})-3-amino-4-methoxy-piperidine-1-carbonyl]-7-methoxy-1-methyl-benzimidazol-2-yl]-8,11-dimethyl-8-(2-pyridyl)-1,10,19-triazatricyclo[10.5.2.0^{15,18}] nonadeca-12(19),13,15(18), 16-tetraen-9-one]
60	COc1cc(C(=O)N[C@H]2CNCC[C@@H]2F)cc2nc(-c3cc4ccc5nc4n3CCCCCc3cccc(F)c3C(=O)N[C@@H]5C)n(C)c12 [Example 345, 2-[(2~{R})-6-fluoro-2-methyl-4-oxo-3,16,22-triazatetracyclo[14.5.2.0^{5,10}.0^{19,23)]tricosa-1(22),5,7,9,17,19(23),20-heptaen-17-yl]-~{N}-[(3~{S},4~{S})-4-fluoro-3-piperidyl]-7-methoxy-1-methyl-benzimidazole-5-carboxamide]
34	C[C@H]1NC(=O)[C@H]2[C@H](CCCC(F)(F)Cn3c(-c4nc5cc(C(=O)N[C@H]6CNCC[C@@H]6F)c(F)cc5n4C4CC4)cc4ccc1nc43)C2(F)F [Example 391, 1-cyclopropyl-6-fluoro-~{N}-[(3~{S},4~{S})-4-fluoro-3-piperidyl]-2-[(2~{R},5~{R},7~{S})-6,6,11,11-tetrafluoro-2-methyl-4-oxo-3,13,19-triazatetracyclo[11.5.2.0^{5,7}.0^{16,20}]icosa-1(19),14,16(20),17-tetraen-14-yl]benzimidazole-5-carboxamide]
201	COc1cc(C(=O)N[C@H]2CNCC[C@H]2F)cc2nc(-c3cc4ccc5nc4n3CCCCCCC(C)(C)C(=O)N[C@@H]5C)n(C)c12 [Example 69, ~{N}-[(3~{S},4~{R})-4-fluoro-3-piperidyl]-7-methoxy-1-methyl-2-[(11~{R})-8,8,11-trimethyl-9-oxo-1,10,19-triazatricyclo[10.5.2.0^{15,18}]nonadeca-12(19),13,15(18),16-tetraen-17-yl]benzimidazole-5-carboxamide]
109	C[C@H]1NC(=O)[C@@H]2C[C@H]2CCCCCn2c(-c3nc4cc(C(=O)N5CC6(CCCNC6)C5)c(F)cc4n3C3CC3)cc3ccc1nc32 [Example 569, (2~{R},5~{R},7~{R})-14-[1-cyclopropyl-5-(2,8-diazaspiro[3.5]nonane-2-carbonyl)-6-fluoro-benzimidazol-2-yl]-2-methyl-3,13,19-triazatetracyclo [11.5.2.0^{5,7}.0^ {16,20}]icosa-1(19),14, 16(20),17-tetraen-4-one]
51	C[C@H]1NC(=O)CCCCCCCn2c(-c3nc4cc(C(=O)N5[C@H]6CC[C@@H]5[C@H](N)C6)ccn4c3C3CC3)cc3ccc1nc32 [Example 249, (11~{R})-17-[7-[(1~{R},2~{R},4~{S})-2-amino-7-azabicyclo[2.2.1]heptane-7-carbonyl]-3-cyclopropyl-imidazo[1,2-a]pyridin-2-yl]-11-methyl-1,10,19-triazatricyclo[10.5.2.0^{15,18}]nonadeca-12(19),13,15(18),16-tetraen-9-one]
25	COc1cc(C(=O)N2[C@H]3CC[C@@H]2[C@H](N)C3)cc2nc(-c3cc4ccc5nc4n3C[C@@H]3C[C@@H]3COCCC(=O)N[C@@H]5C)c(C)n12 (single isomer, unassigned) [Example 328, (3˜{R},5˜{S},12˜{R})-18-[7-[(1˜{R},2˜{R},4˜{S})-2-amino-7-azabicyclo[2.2.1]heptane-7-carbonyl]-5-methoxy-3-methyl-imidazo[1,2-a]pyridin-2-yl]-12-methyl-7-oxa-1,11,20-triazatetracyclo[11.5.2.0^{3,5}.0^{16,19}]icosa-13(20),14,16(19),17-tetraen-10-one]
59	COc1cc(C(=O)N2C[C@H](N)[C@@H]3CC[C@H]2C3)cc2nc(-c3cc4ccc5nc4n3CCCCCc3nc(Cl)ccc3C(=O)N[C@@H]5C)c(C3CC3)n12 [Example 768, (2~{R})-17-[7-[(1~{S},4~{R}, 5~{R})-4-amino-2-azabicyclo [3.2.1]octane-2-carbonyl]-3-cyclopropyl-5-methoxy-imidazo[1,2-a]pyridin-2-yl]-8-chloro-2-methyl-3,9,16,22-tetrazatetracyclo[14.5.2.0^ {5,10}.0^{19,23}]tricosa-1(22),5(10),6,8,17,19(23),20-heptaen-4-one]
28	COc1cc(C(=O)N2C[C@H](N)[C@@H]3CC[C@H]2C3)cc2nc(-c3cc4ccc5nc4n3CC(F)(F)CCCOC(C)(C)C(=O)N[C@@H]5C)n(C3CC3)c12 [Example 771, (11~{R})-17-[5-[(1~{S),4~{R}, 5~{R})-4-amino-2-azabicyclo [3.2.1]octane-2-carbonyl]-1-cyclopropyl-7-methoxy-benzimidazol-2-yl]-3,3-difluoro-8,8,11-trimethyl-7-oxa-1,10,19-triazatricyclo[10.5.2.0^ {15,18}]nonadeca-12(19),13,15(18),16-tetraen-9-one]
24	COc1cc(C(=O)N2C[C@H](N)[C@@H]3CC[C@H]2C3)cc2nc(-c3cc4ccc5nc4n3CCCCCC[C@@](F)(c3ccccn3)C(=O)N[C@@H]5C)n(C)c12 [Example 884, (8~{R},11~{R})-17-[5-[(1~{S),4~{R},5~{R})-4-amino-2-azabicyclo[3.2.1]octane-2-carbonyl]-7-methoxy-1-methyl-benzimidazol-2-yl]-8-fluoro-11-methyl-8-(2-pyridyl)-1,10,19-triazatricyclo[10.5.2.0^ {15,18}]nonadeca-12(19), 13,15(18),16-tetraen-9-one]
110	COc1cc(C(=O)N[C@H]2CNCC[C@@H]2F)cc2nc(-c3cc4ccc5nc4n3CCCCC[C@H]3CC[C@@H]3C(=O)N[C@@H]5C)n(C)c12 (single isomer, unassigned) [Example 486, ˜{N}-[(3˜{S},4˜{S})-4-fluoro-3-piperidyl]-7-methoxy-1-methyl-2-[(2˜{R},5˜{S},8˜{S})-2-methyl-4-oxo-3,14,20-triazatetracyclo[12.5.2.0^{5,8}.0^{17,21}]henicosa-1(20),15,17(21),18-tetraen-15-yl]benzimidazole-5-carboxamide]
33	COc1cc(C(=O)N2[C@H]3CC[C@@H]2[C@H](N)C3)cc2nc(-c3cc4ccc5cc4n3CCCCCCC(C)(C)C(=O)N[C@@H]5C)n(C)c12 [Example 216, (11˜{R})-17-[5-[(1˜{R},2˜{R},4˜{S})-2-amino-7-azabicyclo[2.2.1]heptane-7-carbonyl]-7-methoxy-1-methyl-benzimidazol-2-yl]-8,8,11-trimethyl-1,10-diazatricyclo[10.5.2.0^{15,18}]nonadeca-12(19),13,15(18),16-tetraen-9-one]
